Data taken from article PMC8518915, “Evaluation of 4‐(4‐Fluorobenzyl)piperazin‐1‐yl]‐Based Compounds as Competitive Tyrosinase Inhibitors Endowed with Antimelanogenic Effects” (Chemmedchem, 2021).
Entries after “also recorded” stand apart in the source; their conditions may differ. Like-named read-outs stand apart in the source and are kept apart here.

Experiments:
[1] = tested on: tyrosinase activity in B16F10 cells; test: Tyrosinase zymography (L‐DOPA staining) of cell lysates; type: cell-based, Murine
Method: (§1) MTT assay was used to evaluate the biosafety effectiveness of 23, 25 and 26. Cells were treated with different concentration of each compound (0–100 μM), for 48 h, to determine the potential cytotoxic effect on B16F10 cells. […] To achieve a deeper characterization of most promising and potent inhibitor 26, we further examined its inhibitory effect on the tyrosinase activity in the cellular model. DOPA staining assay was performed using lysates of B16F10 cells untreated or treated with hormone with or without the tested compound 26. […] This was evident with the appearance of a darker band compared to that of untreated control (Figure 7). […] As result, the inhibitory effects of the compound 26 was also confirmed in the cellular model.
The tyrosinase activity was performed by DOPA‐staining assay as previously reported but with slight modifications.[29] A day after seeding the B16F10 cells (6X104 cells/mL) the culture medium was changed by the same medium supplemented with either α‐MSH alone or α‐MSH plus compound (0–100 μM)) or kojic acid (100 μM). After incubation for 48 h, cells were washed and lysed using phosphate buffer (50 mM, pH 6.8) containing Triton X‐100 (1 %) and phenylmethyl‐sulfonyl fluoride (0.1 mM). Cellular lysates were centrifugated at 12000 g for 20 min at 4 °C. Bradford method was used to determine the protein content using BSA as standard. […]

[2] = MTT assay for cell viability; type: cell-based, Murine; conditions: mouse, B16F10 melanoma cells, B16F10 cells, 100 μM (highest concentration)
Method: as §1
(§2) The viability of B16F10 cells was detected by the colorimetric 3‐(4,5‐dimethylthiazol‐2‐yl)‐2,5‐diphenyltetrazolium bromide (MTT) assay. A density of 5x10^3 cells/well, in the absence or presence of compounds (ranging from 1 μM to 100 μM), were seeded in 96‐well plates. The cells were incubated for 48 h at the temperature of 37 °C. MTT solution (0.5 mg/mL) was added at the end of incubation time. The medium was removed after 3 h of incubation at 37 °C. Then, DMSO was added to the precipitates and the absorbance was determined at 560 nm using a microplate reader (Multiskan FC – Thermo Scientific). The cell viability was expressed as the percentage of the amount of living cells in treated samples relative to untreated controls (100 % viability). The mean value and standard deviation (SD) were calculated from triplicate experiments.

[3] = tested on: B16F10 cells; test: MTT assay for cell viability; type: cell-based, Murine; conditions: B16F10 melanoma cells, 48 h, at the concentration inhibiting tyrosinase activity
Method: as §1, §2

[4] = biological target: T1, TYR from Agaricus bisporus (AbTYR) (Agaricus bisporus, UniProt C7FF04); test: Kinetic analysis of the tyrosinase inhibition (Lineweaver‐Burk plots); type: biochemical; conditions: L‐DOPA 0.6–5 mM
T1 construct: purchased Sigma Chemical Co. (St. Louis, MO, USA)
T1 sequence (C7FF04 1-392 limits assumed): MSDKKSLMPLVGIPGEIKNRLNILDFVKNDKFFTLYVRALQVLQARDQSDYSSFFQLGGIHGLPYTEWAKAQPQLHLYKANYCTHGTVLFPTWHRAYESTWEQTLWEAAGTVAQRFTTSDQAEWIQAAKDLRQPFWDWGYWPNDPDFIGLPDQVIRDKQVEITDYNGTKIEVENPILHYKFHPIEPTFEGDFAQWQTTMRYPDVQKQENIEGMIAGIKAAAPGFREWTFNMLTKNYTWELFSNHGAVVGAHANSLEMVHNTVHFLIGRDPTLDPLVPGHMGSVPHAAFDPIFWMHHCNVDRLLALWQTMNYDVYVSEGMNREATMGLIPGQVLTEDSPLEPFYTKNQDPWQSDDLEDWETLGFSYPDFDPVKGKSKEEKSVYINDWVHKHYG
Method: Compounds 23, 25 and 26 were selected for kinetic studies to obtain more information about the mode of action against TYR; thereby their inhibitory effects on diphenolase activity were measured using increasing concentration of L‐DOPA. (0.6–5 mM). The reaction mixture consisted of four different concentrations of L‐DOPA (0.6–5 mM), the substrate, and AbTYR in […] (0.05 M, pH 6.8).
Compounds 23 and 25 (0.2, 0.4, and 0.8 μM), 26 (0.09, 0.18, and 0.36 μM) were added to the reaction mixture. The Michaelis‐Menten constant (Km) and maximal velocity (Vmax) of tyrosinase were determined by Lineweaver‐Burk plots.
A series of experiments were performed to determine the mode of inhibition of compounds 23, 25, 26 on tyrosinase. The reaction mixture consisted of four different concentrations of the substrate L‐DOPA (0.6–5 mM), and mushroom tyrosinase in phosphate buffer (0.05 M, pH 6.8). In addition, three different concentrations of compounds 23, 25, 26 (0.2–0.4–0.8 μM) were used for the analysis. Preincubation and measurement time were the same as discussed in mushroom tyrosinase inhibition assay. The Michaelis‐Menten constant (Km) and maximal velocity (Vmax) of tyrosinase were determined by Lineweaver‐Burk plots.

[5] = tested on: AbTYR; conditions: cited from earlier work; for IC50: efficacy against AbTYR; for mode of inhibition: prototypical AbTYR inhibitor
[6] = biological target: T1, TYR from Agaricus bisporus (AbTYR); conditions: AbTYR kinetic studies; cited from earlier work

SMILES: O=C(c1ccc(Cl)cc1[N+](=O)[O-])N1CCN(Cc2ccc(F)cc2)CC1 [Compound 27, 1‐[4‐(4‐Fluorobenzyl)piperazin‐1‐yl]‐(4‐chloro‐2‐nitro‐phenyl)methanone]
- melting point: 141 to 142 °C

SMILES: O=C(c1cccc(Cl)c1[N+](=O)[O-])N1CCN(Cc2ccc(F)cc2)CC1 [Compound 26, 1‐[4‐(4‐Fluorobenzyl)piperazin‐1‐yl]‐(3‐chloro‐2‐nitro‐phenyl)methanone]
- antimelanogenic effect ([1]; B16F10 cells): exerted antimelanogenic effect; also recorded: displayed antimelanogenic effects
- tyrosinase activity in cellular model (L‐DOPA staining) ([1]; lysates of α‐MSH-treated B16F10 cells, compound 0–100 μM, 48 h): decreased in a dose‐response manner
- melting point: 91 to 92 °C
- viability at 48 h, 100 µM [2]: > 90%
- cytotoxic effect [3]: absence of cytotoxicity; also recorded: no cytotoxic effect; also recorded: no cytotoxicity
- mode of inhibition of diphenolase activity [4]: competitive inhibitors

SMILES: CCOc1cccc(C(C)=NNC(N)=S)c1 [Compound 1, 2‐(1‐(3‐ethoxyphenyl)ethylidene)hydrazine‐1carbothioamide]
- IC50 [5]: 850 nM
- mode of inhibition [5]: competitive

SMILES: COc1ccc([N+](=O)[O-])c(C(=O)N2CCN(Cc3ccc(F)cc3)CC2)c1 [Compound 32, 1‐[4‐(4‐Fluorobenzyl)piperazin‐1‐yl]‐(5‐methoxy‐2‐nitro‐phenyl)methanone]
- melting point: 151 to 152 °C

SMILES: COc1ccc(C(=O)N2CCN(Cc3ccc(F)cc3)CC2)c([N+](=O)[O-])c1 [Compound 31, 1‐[4‐(4‐Fluorobenzyl)piperazin‐1‐yl]‐(4‐methoxy‐2‐nitro‐phenyl)methanone]
- melting point: 133 to 134 °C

SMILES: Oc1ccc(C=Nc2nnc(S)s2)c(O)c1 [Compound 2, 4‐(((5‐mercapto‐1,3,4‐thiadiazol‐2‐yl)imino)methyl)benzene‐1,3‐diol]
- IC50 [5]: 250 nM
- mode of inhibition [5]: uncompetitive

SMILES: O=C(c1cc(F)ccc1C(F)(F)F)N1CCN(Cc2ccc(F)cc2)CC1 [Compound 25, 1‐[4‐(4‐Fluorobenzyl)piperazin‐1‐yl]‐[5‐fluoro‐2‐(trifluoromethyl)phenyl]methanone]
- viability at 48 h, 100 µM [2]: > 90%
- cytotoxic effect [3]: no cytotoxic effect; also recorded: no cytotoxicity
- mode of inhibition of diphenolase activity [4]: competitive inhibitors

SMILES: O=C(Cc1cccc([N+](=O)[O-])c1)N1CCN(Cc2ccc(F)cc2)CC1 [Compound 17, 1‐[4‐(4‐Fluorobenzyl)piperazin‐1‐yl]‐2‐(3‐nitrophenyl)ethan‐1‐one]
- melting point: 83 to 84 °C

SMILES: O=C(c1cccc(F)c1C(F)(F)F)N1CCN(Cc2ccc(F)cc2)CC1 [Compound 23, 1‐[4‐(4‐Fluorobenzyl)piperazin‐1‐yl]‐[3‐fluoro‐2‐(trifluoromethyl)phenyl]methanone]
- viability at 48 h, 100 µM [2]: > 90%
- cytotoxic effect [3]: no cytotoxic effect; also recorded: no cytotoxicity
- mode of inhibition of diphenolase activity [4]: competitive inhibitors

SMILES: O=C(Cc1cccc(Br)c1)N1CCN(Cc2ccc(F)cc2)CC1 [Compound 14, 1‐[4‐(4‐Fluorobenzyl)piperazin‐1‐yl]‐2‐(3‐bromophenyl)ethan‐1‐one]
- melting point: 240 to 242 °C

SMILES: O=c1cc(CO)occ1O [KA, 5‐hydroxy‐2‐(hydroxymethyl)‐4H‐pyran‐4‐one]
- mode of inhibition ([5]; classification from literature): competitive

SMILES: O=C(Cc1ccccc1Cl)N1CCN(Cc2ccc(F)cc2)CC1 [Compound 10, 1‐[4‐(4‐Fluorobenzyl)piperazin‐1‐yl]‐2‐(2‐chlorophenyl)ethan‐1‐one]
- melting point: 100 to 102 °C

SMILES: COc1cc2[nH]cc(C(=O)CCN3CCC(Cc4ccc(F)cc4)CC3)c2cc1OC [Compound 4, 1‐(5,6‐dimethoxy‐1H‐indol‐3‐yl)‐3‐(4‐(4‐fluorobenzyl)piperidin‐1‐yl)propan‐1‐one]
- IC50 [5]: 7560 nM
- mode of inhibition [5]: mixed‐type

SMILES: O=C(c1ccc([N+](=O)[O-])cc1[N+](=O)[O-])N1CCN(Cc2ccc(F)cc2)CC1 [Compound 5 c, [4‐(4‐fluorobenzyl)piperazin‐1‐yl](2,4‐dinitrophenyl)methanone]
- mode of inhibition of diphenolase activity [6]: competitive inhibitor

SMILES: O=C(c1cc(Cl)ccc1[N+](=O)[O-])N1CCN(Cc2ccc(F)cc2)CC1 [Compound 28, 1‐[4‐(4‐Fluorobenzyl)piperazin‐1‐yl]‐(5‐chloro‐2‐nitro‐phenyl)methanone]
- melting point: 130 to 131 °C

SMILES: O=C(Cc1ccc([N+](=O)[O-])cc1)N1CCN(Cc2ccc(F)cc2)CC1 [Compound 18, 1‐[4‐(4‐Fluorobenzyl)piperazin‐1‐yl]‐2‐(4‐nitrophenyl)ethan‐1‐one]
- melting point: 98 to 100 °C

SMILES: O=C(Cc1ccccc1[N+](=O)[O-])N1CCN(Cc2ccc(F)cc2)CC1 [Compound 16, 1‐[4‐(4‐Fluorobenzyl)piperazin‐1‐yl]‐2‐(2‐nitrophenyl)ethan‐1‐one]
- melting point: 88 to 90 °C

SMILES: COc1ccc(CC(=O)N2CCN(Cc3ccc(F)cc3)CC2)cc1 [Compound 19, 1‐[4‐(4‐Fluorobenzyl)piperazin‐1‐yl]‐2‐(4‐methoxyphenyl)ethan‐1‐one]
- melting point: 234 to 238 °C

SMILES: O=C(CN1CCC(Cc2ccccc2)CC1)N1CCN(c2ccc(O)cc2)CC1 [Compound 3, 2‐(4‐benzyl‐1‐piperidyl)‐1‐[4‐(4‐hydroxyphenyl)piperazin‐1‐yl]ethanone]
- IC50 [5]: 3800 nM
- mode of inhibition [5]: noncompetitive

SMILES: O=C(Cc1ccc(Cl)cc1)N1CCN(Cc2ccc(F)cc2)CC1 [Compound 12, 1‐[4‐(4‐Fluorobenzyl)piperazin‐1‐yl]‐2‐(4‐chlorophenyl)ethan‐1‐one]
- melting point: 120 to 122 °C
